Measured values: US9636338B2, “Phenyl-dihydropyridine derivatives as inhibitors of aldosterone synthase” (Hoffmann-La Roche Inc., priority 2013, dated 2017)
pEC50: −log10 of the molar value.

Legend:
CYP11B2 = CYP11B2 (Homo sapiens (Human), UniProt P19099); experiment: G-402 cellular enzyme assay, human CYP11B2 (aldosterone release, HTRF); format: cell-based; conditions: G-402 cells expressing human CYP11B2; 1 μM Deoxycorticosterone
Text: (§1) Herein we identified the use of the G-402 cell line as a host cell to ectopically express (transiently or stably) enzymes of the CYP11 family. Specifically we developed stable G-402 cells expressing ectopically human CYP11B1, human CYP11B2, human CYP11A1, cynmolgus CYP11B1 or cynomolgus CYP11B2 enzyme activity. Importantly the identified cell line G-402 expresses co-factors (adrenodoxin and adrenodoxin reductase) important for the activity of the CYP11 family and no relevant enzyme activity of the CYP11 family (in comparison to H295R cells) was detected in these cells. Therefore the G-402 cell line is uniquely suited as a host cell for the ectopic expression of enzymes from the CYP11 family. G-402 cells can be obtained from ATCC (CRL-1440) and were originally derived from a renal leiomyoblastoma.
(§2) The expression plasmids contains the ORF for either human/cyno CYP11B1 or CYP11B2 under the control of a suitable promoter (CMV-promoter) and a suitable resistance marker (neomycin). Using standard techniques the expression plasmid is transfected into G-402 cells and these cells are then selected for expressing the given resistance markers. Individual cell-clones are then selected and assessed for displaying the desired enzymatic activity using 11-Deoxycorticosterone (Cyp11B2) or 11-Deoxycortisol (Cyp11B1) as a substrate.
(§3) G-402 cells expressing CYP11 constructs were established as described above and maintained in McCoy's 5a Medium Modified, ATCC Catalog No. 30-2007 containing 10% FCS and 400 μg/ml G418 (Geneticin) at 37° C. under an atmosphere of 5% CO2/95% air. Cellular enzyme assays were performed in DMEM/F12 medium containing 2.5% charcoal treated FCS and appropriate concentration of substrate (0.3-10 uM 11-Deoxycorticosterone, 11-Deoxycortisol or Corticosterone). For assaying enzymatic activity, cells were plated onto 96 well plates and incubated for 16 h. An aliquot of the supernatant is then transferred and analyzed for the concentration of the expected product (Aldosterone for CYP11B2; Cortisol for CYP11B1). The concentrations of these steroids can be determined using HTRF assays from CisBio analyzing either Aldosterone or Cortisol.
(§4) Inhibition of the release of produced steroids can be used as a measure of the respective enzyme inhibition by test compounds added during the cellular enzyme assay. The dose dependent inhibition of enzymatic activity by a compound is calculated by means of plotting added inhibitor concentrations (x-axes) vs. measured steroid/product level (y-axes). The inhibition is then calculated by fitting the following 4-parameter sigmoidal function (Morgan-Mercer-Flodin (MMF) model) to the raw data points using the least squares method:
(§5) [formula] wherein, A is the maximum y value, B is the EC50 factor determined using XLFit, C is the minimum y value and D is the slope value.
(§6) EC50 values for compounds claimed herein were tested with the G402-based assay system described. Cyp11B2 enzyme activity was tested in presence of 1 μM Deoxycorticosterone and variable amounts of inhibitors; Cyp11B1 enzyme activity was tested in presence of 1 μM Deoxycortisol and variable amounts of inhibitors.

human CYP11B1 = human CYP11B1 (Homo sapiens (Human), UniProt P15538); experiment: G-402 cellular enzyme assay, human CYP11B1 (cortisol release, HTRF); format: cell-based; conditions: G-402 cells expressing human CYP11B1; 1 μM Deoxycortisol
human CYP11B1, sequence (P15538 25-503): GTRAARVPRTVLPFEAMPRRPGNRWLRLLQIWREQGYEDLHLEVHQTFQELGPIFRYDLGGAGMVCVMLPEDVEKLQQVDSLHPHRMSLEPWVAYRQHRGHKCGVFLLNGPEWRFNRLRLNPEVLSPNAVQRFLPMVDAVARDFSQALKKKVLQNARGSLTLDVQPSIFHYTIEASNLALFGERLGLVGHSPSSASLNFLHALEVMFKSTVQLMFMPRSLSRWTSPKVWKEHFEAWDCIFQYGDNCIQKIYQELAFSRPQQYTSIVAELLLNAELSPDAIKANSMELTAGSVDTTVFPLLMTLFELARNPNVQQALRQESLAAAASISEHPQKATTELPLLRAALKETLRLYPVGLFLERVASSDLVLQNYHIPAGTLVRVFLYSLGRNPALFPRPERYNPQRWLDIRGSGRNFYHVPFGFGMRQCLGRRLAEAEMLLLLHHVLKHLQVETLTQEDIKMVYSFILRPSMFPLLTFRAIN
Text: as §1, §2, §3, §4, §5, §6

[1] = rat CKD model, cited from earlier work; for plasma aldosterone: FAD286 4 weeks of treatment, spironolactone 4 and 8 weeks; for angiotensin II and salt-stimulated PAI-1 mRNA expression: aorta and heart

CYP11B2, sequence (P19099 25-503): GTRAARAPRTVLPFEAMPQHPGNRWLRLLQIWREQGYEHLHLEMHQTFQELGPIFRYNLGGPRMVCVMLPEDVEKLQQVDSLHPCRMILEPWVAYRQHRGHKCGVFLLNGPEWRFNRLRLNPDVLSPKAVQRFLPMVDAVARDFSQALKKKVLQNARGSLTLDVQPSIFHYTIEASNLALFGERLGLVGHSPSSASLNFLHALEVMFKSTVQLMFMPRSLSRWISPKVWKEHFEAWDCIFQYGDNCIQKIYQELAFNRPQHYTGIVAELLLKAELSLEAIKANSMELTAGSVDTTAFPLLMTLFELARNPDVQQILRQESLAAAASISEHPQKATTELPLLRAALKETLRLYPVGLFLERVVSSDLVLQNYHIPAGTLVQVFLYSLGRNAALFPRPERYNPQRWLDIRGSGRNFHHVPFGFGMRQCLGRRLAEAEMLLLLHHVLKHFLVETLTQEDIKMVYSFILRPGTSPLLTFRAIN

SMILES	pEC50 (CYP11B2)	pEC50 (human CYP11B1)	plasma aldosterone [1]	angiotensin II and salt-stimulated PAI-1 mRNA expression [1]
NC1CCc2cncc(-c3ccc(C(F)(F)F)c(F)c3)c21 (racemic) [Example 1, (rac)-4-(3-Fluoro-4-(trifluoromethyl)phenyl)-6,7-dihydro-5H-cyclopenta[c]pyridin-5-amine]	6.58	5.27		
OC1CCc2cncc(-c3ccc(C(F)(F)F)c(F)c3)c21 (racemic) [Example 2, (rac)-4-(3-Fluoro-4-(trifluoromethyl)phenyl)-6,7-dihydro-5H-cyclopenta[c]pyridin-5-ol]	7.16	5.63		
CC1(O)CCc2cncc(-c3ccc(C(F)(F)F)c(F)c3)c21 (racemic) [Example 3, (rac)-4-(3-Fluoro-4-(trifluoromethyl)phenyl)-5-methyl-6,7-dihydro-5H-cyclopenta[c]pyridin-5-ol]	7.35	5.63		
OC1(c2ccccc2)CCc2cncc(-c3ccc(C(F)(F)F)c(F)c3)c21 (racemic) [Example 4, (rac)-4-(3-Fluoro-4-(trifluoromethyl)phenyl)-5-phenyl-6,7-dihydro-5H-cyclopenta[c]pyridin-5-ol]	7.30	5.71		
OC1CCc2cncc(-c3ccc(C(F)(F)F)cc3F)c21 (racemic) [Example 5, (rac)-4-[2-Fluoro-4-(trifluoromethyl)phenyl]-6,7-dihydro-5H-cyclopenta[c]pyridin-5-ol]	6.88	5.48		
CC1(O)CCc2cncc(-c3ccc(C(F)(F)F)cc3F)c21 (racemic) [Example 6, (rac)-4-[2-Fluoro-4-(trifluoromethyl)phenyl]-5-methyl-6,7-dihydrocyclopenta[c]pyridin-5-ol]	6.13	< 4.52		
CC(C)C1(O)CCc2cncc(-c3ccc(C(F)(F)F)cc3F)c21 (racemic) [Example 7, (rac)-4-[2-Fluoro-4-(trifluoromethyl)phenyl]-5-isopropyl-6,7-dihydrocyclopenta[c]pyridin-5-ol]	6.13	4.84		
OC1(c2ccccc2)CCc2cncc(-c3ccc(C(F)(F)F)cc3F)c21 (racemic) [Example 8, (rac)-4-[2-Fluoro-4-(trifluoromethyl)phenyl]-5-phenyl-6,7-dihydrocyclopenta[c]pyridin-5-ol]	7.48	5.13		
CCOC(=O)CC1CCc2cncc(-c3ccc(C(F)(F)F)c(F)c3)c21 (racemic) [Example 11, (rac)-Ethyl 2-[4-[3-fluoro-4-(trifluoromethyl)phenyl]-6,7-dihydro-5H-cyclopenta[c]pyridin-5-yl]acetate]	7.19	6.44		
CNC(=O)CC1CCc2cncc(-c3ccc(C(F)(F)F)c(F)c3)c21 (racemic) [Example 12, (rac)-2-[4-[3-Fluoro-4-(trifluoromethyl)phenyl]-6,7-dihydro-5H-cyclopenta[c]pyridin-5-yl]-N-methyl-acetamide]	6.95	5.99		
O=C(CC1CCc2cncc(-c3ccc(C(F)(F)F)c(F)c3)c21)NCC1CC1 (racemic) [Example 13, (rac)-N-(Cyclopropylmethyl)-2-[4-[3-fluoro-4-(trifluoromethyl)phenyl]-6,7-dihydro-5H-cyclopenta[c]pyridin-5-yl]acetamide]	7.22	5.94		
CCCNC(=O)CC1CCc2cncc(-c3ccc(C(F)(F)F)c(F)c3)c21 (racemic) [Example 14, (rac)-2-[4-[3-Fluoro-4-(trifluoromethyl)phenyl]-6,7-dihydro-5H-cyclopenta[c]pyridin-5-yl]-N-propyl-acetamide]	5.82	5.58		
O=C(CC1CCc2cncc(-c3ccc(C(F)(F)F)c(F)c3)c21)N1CCCCC1 (racemic) [Example 15, (rac)-2-[4-[3-Fluoro-4-(trifluoromethyl)phenyl]-6,7-dihydro-5H-cyclopenta[c]pyridin-5-yl]-1-(1-piperidyl)ethanone]	6.08	< 4.52		
O=C(CC1CCc2cncc(-c3ccc(C(F)(F)F)c(F)c3)c21)N1CCOCC1 (racemic) [Example 16, (rac)-2-[4-[3-Fluoro-4-(trifluoromethyl)phenyl]-6,7-dihydro-5H-cyclopenta[c]pyridin-5-yl]-1-morpholino-ethanone]	5.99	5.44		
O=C(CC1CCc2cncc(-c3ccc(C(F)(F)F)c(F)c3)c21)Nc1ccon1 (racemic) [Example 17, (rac)-2-[4-[3-Fluoro-4-(trifluoromethyl)phenyl]-6,7-dihydro-5H-cyclopenta[c]pyridin-5-yl]-N-isoxazol-3-yl-acetamide]	7.00	6.51		
O=C(CC1CCc2cncc(-c3ccc(C(F)(F)F)c(F)c3)c21)Nc1cc[nH]n1 (racemic) [Example 18, (rac)-2-[4-[3-Fluoro-4-(trifluoromethyl)phenyl]-6,7-dihydro-5H-cyclopenta[c]pyridin-5-yl-]-N-(1H-pyrazol-3-yl)acetamide]	6.22	6.55		
O=C(CC1CCc2cncc(-c3ccc(C(F)(F)F)cc3F)c21)N1CCCC1 (racemic) [Example 19, (rac)-2-[4-[2-Fluoro-4-(trifluoromethyl)phenyl]-6,7-dihydro-5H-cyclopenta[c]pyridin-5-yl]-1-pyrrolidin-1-yl-ethanone]	6.35	5.07		
CCN(C)C(=O)CC1CCc2cncc(-c3ccc(C(F)(F)F)cc3F)c21 (racemic) [Example 20, (rac)-N-Ethyl-2-[4-[2-fluoro-4-(trifluoromethyl)phenyl]-6,7-dihydro-5H-cyclopenta[c]pyridin-5-yl-]-N-methyl-acetamide]	6.67	5.22		
CC(C)N(C)C(=O)CC1CCc2cncc(-c3ccc(C(F)(F)F)cc3F)c21 (racemic) [Example 21, (rac)-2-[4-[2-Fluoro-4-(trifluoromethyl)phenyl]-6,7-dihydro-5H-cyclopenta[c]pyridin-5-yl]-N-isopropyl-N-methyl-acetamide]	6.38	5.08		
CN(C(=O)CC1CCc2cncc(-c3ccc(C(F)(F)F)cc3F)c21)C1CC1 (racemic) [Example 22, (rac)-N-Cyclopropyl-2-[4-[2-fluoro-4-(trifluoromethyl)phenyl]-6,7-dihydro-5H-cyclopenta[c]pyridin-5-yl-]-N-methyl-acetamide]	6.02	5.02		
CCN(C(=O)CC1CCc2cncc(-c3ccc(C(F)(F)F)cc3F)c21)C1CC1 (racemic) [Example 23, (rac)-N-Cyclopropyl-N-ethyl-2-[4-[2-fluoro-4-(trifluoromethyl)phenyl]-6,7-dihydro-5H-cyclopenta[c]pyridin-5-yl]acetamide]	6.31	5.06		
C[C@H]1CCCN1C(=O)CC1CCc2cncc(-c3ccc(C(F)(F)F)cc3F)c21 (mixture of isomers) [Example 24, (rac)-2-[4-[2-Fluoro-4-(trifluoromethyl)phenyl]-6,7-dihydro-5H-cyclopenta[c]pyridin-5-yl]-1-[(2S)-2-methylpyrrolidin-1-yl]ethanone]	6.69	5.40		
OC1(c2ccccc2)CCc2cncc(-c3ccc(C(F)(F)F)cc3F)c21 (single isomer, unassigned; (+)) [Example 9, (+)-4-[2-Fluoro-4-(trifluoromethyl)phenyl]-5-phenyl-6,7-dihydrocyclopenta[c]pyridin-5-ol]	6.13	4.46		
OC1(c2ccccc2)CCc2cncc(-c3ccc(C(F)(F)F)cc3F)c21 (single isomer, unassigned; (-)) [Example 10, (−)-4-[2-Fluoro-4-(trifluoromethyl)phenyl]-5-phenyl-6,7-dihydrocyclopenta[c]pyridin-5-ol]	7.20	5.09		
N#Cc1ccc([C@H]2CCCc3cncn32)cc1 [FAD286]			reduced	not FAD286 enhanced
CC(=O)S[C@@H]1CC2=CC(=O)CC[C@]2(C)[C@H]2CC[C@@]3(C)[C@@H](CC[C@@]34CCC(=O)O4)[C@H]12 [spironolactone]			increased	enhanced
